Like-named read-outs stand apart in the source and are kept apart here.
Experiments:
Assay type in all cases: in vivo
Plutella xylostella = assay: Insecticidal activity against Plutella xylostella, airbrush spray on cabbage leaf discs; conditions: foliar, 72 h; for pest or weed control at 5 µg/mL: 5 mg/L, Table 5, read-out: Lethality rate (%, 3 days after the treatment) 5 mg/L; for pest or weed control at 0.5 µg/mL: 0.5 mg/L, Table 5, read-out: Lethality rate (%, 3 days after the treatment) 0.5 mg/L; for pest or weed control at 0.05 µg/mL: 0.05 mg/L, Table 5, read-out: Lethality rate (%, 3 days after the treatment) 0.05 mg/L
Protocol: (§1) After being dissolved in a mixed solvent of acetone/methanol (1:1), the test compound was diluted with water containing 0.1% (wt) Tween 80 to the desired concentration.
(§2) With Leucania separata, Plutella xylostella, and Chilo suppressalis as targets, airbrush spray method was used for the determination of the insecticidal activity.
(§3) Determination method: Cabbage leaves were punched into leaf discs with a diameter of 2 cm with a puncher, and Airbrush spray treatment was carried out at a pressure of 10 psi (approximately 0.7 kg/cm^2) on the front and back sides of each leaf disc, with a spray volume of the compound to be tested of 0.5 ml. After drying in the shade, 10 of 3rd instar larvae were introduced for each treatment, and each treatment was repeated 3 times for. After the treatment, it was placed in an observation room at 25° C. and a relative humidity of 60-70%, and 3 days after the treatment, the number of surviving insects was investigated, and the mortality rate was calculated.

Chilo suppressalis = assay: Insecticidal activity against Chilo suppressalis, sprayed Oryza sativa seedlings/stalks; conditions: for Lethality rate (%, 3 days after the treatment) 1 mg/L / Lethality rate (%, 3 days after the treatment) 10 mg/L / Lethality rate (%, 3 days after the treatment) 0.5 mg/L: parallel comparison test, Table 6; for pest or weed control at 1 µg/mL: Chilo suppressalis, 72 h, dose 1 mg/L, 3 days after the treatment, 3rd instar larvae, read-out: lethality rate against Chilo suppressalis
Protocol: as §1, §2
Determination method: 1) Preparation of Oryza sativa seedlings: Oryza sativa was cultivated in a constant temperature room (a temperature of 26-28V, a relative humidity of about 60-80%, and a light illumination of 16 hL:8 hD) in a small plastic cup with a diameter of 4.5 cm and a height of 4 cm, and when the Oryza sativa grew up to the 4-5 leaf stage, robust and consistent Oryza sativa seedlings were selected for chemical treatment, and 3 repetitions were performed for each treatment. 2) Preparation for test insects: Chilo suppressalis at 3rd instar larvae were raised continuously indoors. 3) The Oryza sativa stems were sprayed and insects were introduced. Spraying was performed uniformly on the whole plant of the Oryza sativa seedlings, with 15 ml of compound solution for each treatment. The blank control was treated first, and then the above operations were repeated in the order of the test concentration from low to high. After the Oryza sativa seedlings were sprayed, they were placed in a cool place to dry the liquid, and about 5 cm of stalks at the base of the stems were cut and fed to the test insects. A glass petri dish with a diameter of 90 mm was placed with filter paper at the bottom of the dish, and then was moisturized by adding water. After that, about 5 rice stalks and 10 larvae were placed in each dish, and the petri dish was sealed with a non-woven fabric and placed in a constant temperature room for cultivation. The number of remaining live insects was investigated 3 days after the treatment.

Leucania separata = assay: Insecticidal activity against Leucania separata, airbrush spray on corn leaf sections; conditions: Mythimna separata, 72 h; dose 0.05 mg/L, 3 days after the treatment, 3rd instar larvae; read-out: lethality rate against Leucania separata
Protocol: as §1, §2
as §3, with “Corn” for “Cabbage”, “cut” for “punched”, “into” for “into leaf discs with a diameter of”, “leaf sections,” for “with a puncher,”, “section,” for “disc,”, “times.” for “times for.”

[1] = 1 mg/L, parallel comparison test, Table 5, read-out: Lethality rate (%, 3 days after the treatment) 1 mg/L
[2] = dose 1 mg/L, 3 days after the treatment, 3rd instar larvae, read-out: lethality rate against Plutella xylostella

Structure (SMILES) | pest or weed control at 1 µg/mL (Plutella xylostella; [1]) [%] | pest or weed control at 5 µg/mL (Plutella xylostella; parallel comparison test) [%] | Lethality rate (%, 3 days after the treatment) 1 mg/L (Chilo suppressalis) [%] | Lethality rate (%, 3 days after the treatment) 10 mg/L (Chilo suppressalis) [%] | pest or weed control at 0.5 µg/mL (Plutella xylostella; parallel comparison test) [%] | pest or weed control at 0.05 µg/mL (Plutella xylostella; parallel comparison test) [%] | pest or weed control at 0.05 µg/mL (Leucania separata) [%] | pest or weed control at 1 µg/mL (Plutella xylostella; [2]) [%] | pest or weed control at 1 µg/mL (Chilo suppressalis) [%] | Lethality rate (%, 3 days after the treatment) 0.5 mg/L (Chilo suppressalis) [%]
N#CCCN(C(=O)c1cnccn1)c1cccc(C(=O)Nc2c(Br)cc(C(F)(C(F)(F)F)C(F)(F)F)cc2Br)c1F [CK1, reference compound] | 0 | 66.7 | 0 | 13.33 |  |  |  |  |  | 
N#CCCN(C(=O)c1ccc(Cl)nc1)c1cccc(C(=O)Nc2c(Br)cc(C(F)(C(F)(F)F)C(F)(F)F)cc2Br)c1F [Compound 1-1] | 50 | 93.3 |  |  | 6.67 |  |  |  |  | 
N#CCCN(C(=O)c1cccnc1)c1cccc(C(=O)Nc2c(Br)cc(C(F)(C(F)(F)F)C(F)(F)F)cc2Br)c1F [Compound 1-2] | 30 | 90 | 0 | 0 | 0 |  |  |  |  | 
N#CCCN(C(=O)c1ccncc1)c1cccc(C(=O)Nc2c(Br)cc(C(F)(C(F)(F)F)C(F)(F)F)cc2Br)c1F [Compound 1-3] | 76.7 | 100 |  |  | 13.3 | 0 |  |  |  | 
N#CCCN(C(=O)c1ccccn1)c1cccc(C(=O)Nc2c(Br)cc(C(F)(C(F)(F)F)C(F)(F)F)cc2Br)c1F [Compound 1-4] | 10 | 60 |  |  |  |  |  |  |  | 
N#CCCN(C(=O)c1ccc(F)cn1)c1cccc(C(=O)Nc2c(Br)cc(C(F)(C(F)(F)F)C(F)(F)F)cc2Br)c1F [Compound 1-5] | 60 | 83.3 |  |  | 33.3 | 0 |  |  |  | 
N#CCCN(C(=O)c1cnc(F)cn1)c1cccc(C(=O)Nc2c(Br)cc(C(F)(C(F)(F)F)C(F)(F)F)cc2Br)c1F [Compound 1-6] | 60 | 100 |  |  | 16.7 | 0 |  |  |  | 
N#CCCN(C(=O)c1cnc(F)nc1)c1cccc(C(=O)Nc2c(Br)cc(C(F)(C(F)(F)F)C(F)(F)F)cc2Br)c1F [Compound 1-7] | 73.3 | 100 |  |  | 20 | 0 |  |  |  | 
N#CCN(C(=O)c1ccc(F)nc1)c1cccc(C(=O)Nc2c(Br)cc(C(F)(C(F)(F)F)C(F)(F)F)cc2Br)c1F [Compound 1] |  |  |  |  |  |  | ≥ 90 | ≥ 90 | ≥ 90 | 
N#CCCN(C(=O)c1cccnc1)c1cccc(C(=O)Nc2c(Br)cc(C(F)(C(F)(F)F)C(F)(F)F)cc2C(F)(F)F)c1F [Compound 2-1] | 60 | 100 |  |  | 20 | 0 |  |  |  | 
N#CCCN(C(=O)c1ccncc1)c1cccc(C(=O)Nc2c(Br)cc(C(F)(C(F)(F)F)C(F)(F)F)cc2C(F)(F)F)c1F [Compound 2-2] | 93.3 | 100 |  |  | 30 | 0 |  |  |  | 
N#CCCN(C(=O)c1ccccn1)c1cccc(C(=O)Nc2c(Br)cc(C(F)(C(F)(F)F)C(F)(F)F)cc2C(F)(F)F)c1F [Compound 2-3] | 40 | 100 |  |  | 10 | 0 |  |  |  | 
N#CCCN(C(=O)c1ccc(F)cn1)c1cccc(C(=O)Nc2c(Br)cc(C(F)(C(F)(F)F)C(F)(F)F)cc2C(F)(F)F)c1F [Compound 2-4] | 90 | 100 |  |  | 63.3 | 33.3 |  |  |  | 
N#CCCN(C(=O)c1cnccn1)c1cccc(C(=O)Nc2c(Br)cc(C(F)(C(F)(F)F)C(F)(F)F)cc2C(F)(F)F)c1F [Compound 2-5] | 50 | 100 | 23.33 | 70 | 23.3 | 0 |  |  |  | 0
N#CCCN(C(=O)c1cnc(F)cn1)c1cccc(C(=O)Nc2c(Br)cc(C(F)(C(F)(F)F)C(F)(F)F)cc2C(F)(F)F)c1F [Compound 2-6] | 90 | 100 |  |  | 60 | 20 |  |  |  | 
N#CCCN(C(=O)c1cnc(F)nc1)c1cccc(C(=O)Nc2c(Br)cc(C(F)(C(F)(F)F)C(F)(F)F)cc2C(F)(F)F)c1F [Compound 2-7] | 96.7 | 100 |  |  | 53.3 | 0 |  |  |  | 
N#CCCN(C(=O)c1ccc(F)nc1)c1cccc(C(=O)Nc2c(Br)cc(C(F)(C(F)(F)F)C(F)(F)F)cc2Br)c1F [Compound 2] | 100 | 100 | 100 | 100 | 86.7 | 43.3 | ≥ 90 | ≥ 90 | ≥ 90 | 86.67
N#CCCCN(C(=O)c1ccc(F)nc1)c1cccc(C(=O)Nc2c(Br)cc(C(F)(C(F)(F)F)C(F)(F)F)cc2Br)c1F [Compound 3] |  |  |  |  |  |  | ≥ 90 | ≥ 90 | ≥ 90 | 
N#CCCCCN(C(=O)c1ccc(F)nc1)c1cccc(C(=O)Nc2c(Br)cc(C(F)(C(F)(F)F)C(F)(F)F)cc2Br)c1F [Compound 4] |  |  |  |  |  |  | ≥ 90 | ≥ 90 | ≥ 90 | 
N#CCN(C(=O)c1ccc(F)nc1)c1cccc(C(=O)Nc2c(Br)cc(C(F)(C(F)(F)F)C(F)(F)F)cc2I)c1F [Compound 5] |  |  |  |  |  |  | ≥ 90 | ≥ 90 | ≥ 90 | 
N#CCCN(C(=O)c1ccc(F)nc1)c1cccc(C(=O)Nc2c(Br)cc(C(F)(C(F)(F)F)C(F)(F)F)cc2I)c1F [Compound 6] |  |  |  |  |  |  | ≥ 90 | ≥ 90 | ≥ 90 | 
